Assays:
guanosine [1] = test: Reversibility of kethoxal derivatives using GTP for competition (LCMS of free guanosine); format: physicochemical; conditions: 1:1 ratio
guanosine [2] = test: Reactivity of kethoxal derivatives with guanosine (conversion rates of guanosine); format: biochemical
[3] = pH = 7.0, 10 min, excess GTP added after 10 min
[4] = pH = 7.0, 2 h, excess GTP competitor
[5] = pH = 7.0, 24 h, excess GTP competitor
[6] = pH = 7.8, S1:S2 = 2:1 (S1 guanosine, S2 kethoxal derivative)

Row | SMILES | Conversion rate of guanosine (guanosine [2]; pH = 7.0, S1:S2 = 1:1) | Conversion rate of guanosine (guanosine [2]; pH = 7.0, S1:S2 = 1:2) | Conversion rate of guanosine (guanosine [2]; pH = 7.0, S1:S2 = 2:1) | Conversion rate of guanosine (guanosine [2]; pH = 7.8, S1:S2 = 1:1) | Conversion rate of guanosine (guanosine [2]; pH = 7.8, S1:S2 = 1:2) | other results
1 | CC(Br)C(=O)C=O (stereo not shown) [drawing 82] |  |  |  |  |  | Conversion of guanosine under competition condition (guanosine [1]; [3]): 46.2%; Conversion of guanosine under competition condition (guanosine [1]; [4]): 38.2%; Conversion of guanosine under competition condition (guanosine [1]; [5]): 18.6%
2 | CC(OC(=O)CN=[N+]=[N-])C(=O)C=O (stereo not shown) [drawing 49] | 50.1% | 81.3% | 29.5% |  |  | 
3 | [N-]=[N+]=NCCOC(F)(F)C(=O)C=O [drawing 44] |  |  |  | 14.7% | 28.9% | Conversion rate of guanosine (guanosine [2]; pH = 7.8, S1:S2 = 1:3): 38.7%; Conversion rate of guanosine (guanosine [2]; pH = 7.8, S1:S2 = 1:5): 63.1%; Conversion rate of guanosine (guanosine [2]; [6]): 8.5%
4 | CC(C(=O)C=O)N(C)C(=O)CN=[N+]=[N-] (stereo not shown) [drawing 40] |  |  |  | 40.2% | 66.7% | Conversion rate of guanosine (guanosine [2]; pH = 7.8, S1:S2 = 1:3): 74.9%; Conversion rate of guanosine (guanosine [2]; pH = 7.8, S1:S2 = 1:5): 83.2%
5 | CC(OCCN=[N+]=[N-])C(=O)C=O (stereo not shown) [drawing 46] | 70.6% | 93.7% | 39.6% |  |  | 
6 | O=CC(=O)c1ccc([N+](=O)[O-])cc1 |  |  |  |  |  | Conversion of guanosine under competition condition (guanosine [1]; [3]): 48.0%; Conversion of guanosine under competition condition (guanosine [1]; [4]): 13.5%
7 | CC(C)(OCCN=[N+]=[N-])C(=O)C=O [drawing 32] |  |  |  | 81.6% | 97.4% | Conversion rate of guanosine (guanosine [2]; [6]): 51.3%
8 | CC(C)(OCCN=[N+]=[N-])C(=O)C=O [drawing 47] | 46.7% | 76.6% | 23.6% |  |  | 
9 | [N-]=[N+]=NCCCC(=O)C=O [drawing 39] |  |  |  | 48.0% | 70.5% | Conversion rate of guanosine (guanosine [2]; pH = 7.8, S1:S2 = 1:3): 88.9%; Conversion rate of guanosine (guanosine [2]; pH = 7.8, S1:S2 = 1:5): 89.2%; Conversion rate of guanosine (guanosine [2]; [6]): 23.8%
10 | O=CC(=O)Cc1ccccc1 [drawing 60] | 22.5% | 30.4% | 9.0% |  |  | 
11 | [N-]=[N+]=NCCOC(F)C(=O)C=O (stereo not shown) [drawing 58] | 6.4% | 8.2% | 3.2% |  |  | Conversion rate of guanosine (guanosine [2]; pH = 7.0, S1:S2 = 1:0): 24.7%; Conversion rate of guanosine (guanosine [2]; pH = 7.0, S1:S2 = 1:4): 16.5%
12 | CC(Br)C(=O)C=O (stereo not shown) [drawing 36] |  |  |  | 67.2% | 89.9% | Conversion rate of guanosine (guanosine [2]; pH = 7.8, S1:S2 = 1:3): 92.2%; Conversion rate of guanosine (guanosine [2]; [6]): 35.8%
13 | [N-]=[N+]=NCCOCC(=O)C=O [drawing 33] |  |  |  | 78.6% | 95.4% | Conversion rate of guanosine (guanosine [2]; [6]): 51.3%
14 | O=CC(=O)c1ccccc1 [drawing 88] |  |  |  |  |  | Conversion of guanosine under competition condition (guanosine [1]; [3]): 25.7%; Conversion of guanosine under competition condition (guanosine [1]; [4]): 12.3%; Conversion of guanosine under competition condition (guanosine [1]; [5]): 4.4%
15 | CC(OC(=O)CN=[N+]=[N-])C(=O)C=O (stereo not shown) [drawing 34] |  |  |  | 77.5% | 92.1% | Conversion rate of guanosine (guanosine [2]; [6]): 43.6%
16 | [N-]=[N+]=NCCOCCC(=O)C=O [drawing 41] |  |  |  | 41.1% | 60.0% | Conversion rate of guanosine (guanosine [2]; pH = 7.8, S1:S2 = 1:3): 66.4%; Conversion rate of guanosine (guanosine [2]; pH = 7.8, S1:S2 = 1:5): 73.6%; Conversion rate of guanosine (guanosine [2]; [6]): 25.2%
17 | [N-]=[N+]=NCCOC(F)(F)C(=O)C=O [drawing 90] |  |  |  |  |  | Conversion of guanosine under competition condition (guanosine [1]; pH = 10.1, 10 min, excess GTP added after 10 min): 51.2% (pH = 10.1); Conversion of guanosine under competition condition (guanosine [1]; pH = 10.1, 2 h, excess GTP competitor): 42.4% (pH = 10.1); Conversion of guanosine under competition condition (guanosine [1]; pH = 10.1, 24 h, excess GTP competitor): 22.2% (pH = 10.1)
18 | [N-]=[N+]=NCCOC(F)C(=O)C=O (stereo not shown) [drawing 89] |  |  |  |  |  | Conversion of guanosine under competition condition (guanosine [1]; [3]): 6.4%; Conversion of guanosine under competition condition (guanosine [1]; [4]): 18.6%; Conversion of guanosine under competition condition (guanosine [1]; [5]): 22.8%

Row | SMILES | Conversion rate of guanosine (guanosine [2]; pH = 7.0, S1:S2 = 1:1) | Conversion rate of guanosine (guanosine [2]; pH = 7.0, S1:S2 = 1:2) | Conversion rate of guanosine (guanosine [2]; pH = 7.0, S1:S2 = 2:1) | Conversion rate of guanosine (guanosine [2]; pH = 7.8, S1:S2 = 1:1) | Conversion rate of guanosine (guanosine [2]; pH = 7.8, S1:S2 = 1:2) | other results
19 | [N-]=[N+]=NCCCC(=O)C=O [drawing 54] | 40.8% | 63.2% | 19.8% |  |  | Conversion rate of guanosine (guanosine [2]; pH = 7.0, S1:S2 = 1:4): 87.2%
20 | [N-]=[N+]=NCCOC(F)C(=O)C=O (stereo not shown) [drawing 43] |  |  |  | 30.9% | 49.6% | Conversion rate of guanosine (guanosine [2]; pH = 7.8, S1:S2 = 1:3): 69.5%; Conversion rate of guanosine (guanosine [2]; pH = 7.8, S1:S2 = 1:5): 76.7%; Conversion rate of guanosine (guanosine [2]; pH = 7.8, S1:S2 = 1:10): 81.6%
21 | [N-]=[N+]=NCCOCCC(=O)C=O [drawing 56] | 38.3% | 49.6% | 16.8% |  |  | 
22 | CCN(CC)C(C)C(=O)C=O (stereo not shown) |  |  |  |  |  | Conversion of guanosine under competition condition (guanosine [1]; [3]): 66.9%; Conversion of guanosine under competition condition (guanosine [1]; [4]): 66.1%; Conversion of guanosine under competition condition (guanosine [1]; [5]): 36.3%
23 | CC(OCCN=[N+]=[N-])C(=O)C=O (stereo not shown) [drawing 31] |  |  |  | 86.9% | 97.4% | Conversion rate of guanosine (guanosine [2]; [6]): 51.6%
24 | CC(C(=O)C=O)N(C)C(=O)CN=[N+]=[N-] (stereo not shown) [drawing 55] | 46.2% | 64.2% | 20.4% |  |  | Conversion rate of guanosine (guanosine [2]; pH = 7.0, S1:S2 = 1:4): 84.7%
25 | CC(C(=O)C=O)N(C)C(=O)CN=[N+]=[N-] (stereo not shown) [drawing 86] |  |  |  |  |  | Conversion of guanosine under competition condition (guanosine [1]; [3]): 41.8%; Conversion of guanosine under competition condition (guanosine [1]; [4]): 26.1%; Conversion of guanosine under competition condition (guanosine [1]; [5]): 23.4%
26 | O=CC(=O)c1ccccc1 [drawing 57] | 22.5% | 33.2% | 9.9% |  |  | Conversion rate of guanosine (guanosine [2]; pH = 7.0, S1:S2 = 1:4): 51.5%
27 | [N-]=[N+]=NCCOCC(=O)C=O [drawing 79] |  |  |  |  |  | Conversion of guanosine under competition condition (guanosine [1]; [3]): 47.4%; Conversion of guanosine under competition condition (guanosine [1]; [4]): 29.7%; Conversion of guanosine under competition condition (guanosine [1]; [5]): 27.4%
28 | CC(N=[N+]=[N-])C(=O)C=O (stereo not shown) [drawing 81] |  |  |  |  |  | Conversion of guanosine under competition condition (guanosine [1]; [3]): 56.5%; Conversion of guanosine under competition condition (guanosine [1]; [4]): 40.9%
29 | CC(Br)C(=O)C=O (stereo not shown) [drawing 51] | 40.4% | 81.2% | 22.4% |  |  | 
30 | [N-]=[N+]=NCCOC(F)(F)C(=O)C=O [drawing 59] | 1.4% | 1.9% | 0% |  |  | Conversion rate of guanosine (guanosine [2]; pH = 7.0, S1:S2 = 1:0): 9.8%; Conversion rate of guanosine (guanosine [2]; pH = 7.0, S1:S2 = 1:4): 3.8%
31 | O=CC(=O)c1ccccc1 [phenyl-substituted kethoxal derivative] | 18.8% | 37.6% |  | 32.2% | 51.2% | Conversion rate of guanosine (guanosine [2]; pH = 7.0, S1:S2 = 1:3): 51.0%; Conversion rate of guanosine (guanosine [2]; pH = 7.0, S1:S2 = 1:5): 67.0%; Conversion rate of guanosine (guanosine [2]; pH = 7.8, S1:S2 = 1:3): 66.2%; Conversion rate of guanosine (guanosine [2]; pH = 7.8, S1:S2 = 1:5): 80.1%
32 | [N-]=[N+]=NCCOCC(=O)C=O [drawing 48] | 52.2% | 79.2% | 30.3% |  |  | 
33 | CC(OCCN=[N+]=[N-])C(=O)C=O (stereo not shown) [drawing 77] |  |  |  |  |  | Conversion of guanosine under competition condition (guanosine [1]; [3]): 71.4%; Conversion of guanosine under competition condition (guanosine [1]; [4]): 60.8%; Conversion of guanosine under competition condition (guanosine [1]; [5]): 28.9%
34 | O=CC(=O)Cc1ccccc1 [drawing 91] |  |  |  |  |  | Conversion of guanosine under competition condition (guanosine [1]; [3]): 21.8%; Conversion of guanosine under competition condition (guanosine [1]; [4]): 9.6%; Conversion of guanosine under competition condition (guanosine [1]; [5]): 8.4%
35 | CC(N=[N+]=[N-])C(=O)C=O (stereo not shown) [drawing 35] |  |  |  | 71.2% | 90.3% | Conversion rate of guanosine (guanosine [2]; pH = 7.8, S1:S2 = 1:3): 96.5%; Conversion rate of guanosine (guanosine [2]; [6]): 38.0%
36 | CC(N=[N+]=[N-])C(=O)C=O (stereo not shown) [drawing 50] | 46.7% | 79.2% | 22.0% |  |  | Conversion rate of guanosine (guanosine [2]; pH = 7.0, S1:S2 = 1:4): 95.3%

Reference: patent publication US20220143198A1, “COMPOSITIONS AND METHODS RELATED TO TETHERED KETHOXAL DERIVATIVES” (The University of Chicago, priority 2019, published 2022)
